Data taken from patent US8546608B2, “Proteasome inhibitors and methods of using the same” (Cephalon, Inc., priority 2003, dated 2013).

Experiments:
[1] = biological target: T1, 20S Human Erythrocyte Proteasome (HEP) (Homo sapiens, UniProt P20618+P28074); assay: Chymotrypsin-like activity of 20S Human Erythrocyte Proteasome (HEP), IC50 determination; type: biochemical; settings: assay of Example C, inhibition of HEP
T1 construct: 20S Human Erythrocyte Proteasome (HEP), purchased from Immatics Biotechnologies Inc; purchased Immatics Biotechnologies Inc., Tübingen, Germany; host or cells: human erythrocytes (natural source)
Summary of the method: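 20S proteasome at 0.2 μg/mL (about 0.6 nM catalytic sites) in 20 mM Tris with 0.04% SDS, preincubated 15 min at 37° C with inhibitor before Suc-LLVY-AMC (100 μM final). AMC fluorescence read in the linear range; triplicates, IC50 from concentration series.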

[2] = biological target: T2, proteasome in Molt-4 cells (human leukemia) (Homo sapiens, UniProt P20618+P28074); type: cell-based; settings: assay of Example E, inhibition of MOLT4; read-out: MOLT4 (EC50)
T2 sequence (P28074 60-263): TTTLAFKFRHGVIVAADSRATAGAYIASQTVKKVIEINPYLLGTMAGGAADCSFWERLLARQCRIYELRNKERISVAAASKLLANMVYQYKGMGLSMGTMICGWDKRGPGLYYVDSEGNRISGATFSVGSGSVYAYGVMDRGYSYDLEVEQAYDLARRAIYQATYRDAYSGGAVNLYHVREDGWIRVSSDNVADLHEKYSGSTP
T2 sequence (P20618 29-241): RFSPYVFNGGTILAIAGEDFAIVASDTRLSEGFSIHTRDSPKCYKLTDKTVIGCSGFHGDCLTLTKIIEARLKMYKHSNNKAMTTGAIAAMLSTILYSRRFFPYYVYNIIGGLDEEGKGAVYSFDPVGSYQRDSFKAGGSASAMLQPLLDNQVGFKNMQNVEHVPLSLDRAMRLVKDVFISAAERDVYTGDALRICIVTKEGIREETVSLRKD
Summary of the method: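 Intact Molt-4 cells (6×10^6 cells/mL) in HEPES-buffered saline were preincubated with inhibitor 15 min at 37 °C, then given cell-permeable MeOSuc-FLF-AFC at 25 μM final.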

melting point [°C] | IC50 [1] [nM] | EC50 [2] [nM] | Compound
107 to 109 | < 10 | < 200 | CCCCc1ccc(C(=O)N[C@@H](CNC(C)=O)C(=O)N[C@@H](CC(C)C)B(O)O)cc1 [E.5.8]
92 to 96 | < 10 | < 200 | CCCCc1ccc(C(=O)N[C@@H](CNC(=O)OCc2ccccc2)C(=O)N[C@@H](CC(C)C)B(O)O)cc1 [E.5.6]
200 to 208 | < 10 | < 200 | CC(C)C[C@H](NC(=O)[C@@H](NC(=O)c1ccc(-c2ccccc2)cc1)[C@@H](C)O)B(O)O [E.3.5, Boronic acid, [(1R)-1-[[(2S,3R)-3-hydroxy-2-[(4-phenylbenzoyl)amino]-1-oxobutyl]amino]-3-methylbutyl]]
95 to 100 | < 10 | < 200 | CCCCc1ccc(C(=O)N[C@@H](CNC(=O)OCc2ccccc2)C(=O)N[C@@H](CC(C)C)B2O[C@@H]3C[C@@H]4C[C@@H](C4(C)C)[C@]3(C)O2)cc1 [D.16.6]
> 250 | < 10 | 200 to 2000 | CCCCc1ccc(C(=O)N[C@@H](CNC(=O)c2ccc(-c3nn[nH]n3)cc2)C(=O)N[C@@H](CC(C)C)B(O)O)cc1 [E.5.24, Boronic acid, [(1R)-1-[[(2S)-3-[4-(1H-tetrazolyl)-phenylcarbonylamino]-2-[(4-butylbenzoylamino)]-1-oxopropyl]amino]-3-methylbutyl]]
158 to 160 | < 10 | < 200 | CC(C)C[C@H](NC(=O)[C@H](CNC(=O)c1ccc(-c2ccccc2)cc1)NC(=O)c1ccc(Oc2ccccc2)cc1)B(O)O [E.5.34, Boronic acid, [(1R)-1-[[(2S)-3-(4-phenylbenzamide]-2-[(4-phenoxybenzoyl)amino]-1-oxopropyl]amino]-3-methylbutyl]]
53 to 55 | < 10 | < 200 | CCCCc1ccc(C(=O)N[C@@H](CNS(C)(=O)=O)C(=O)N[C@@H](CC(C)C)B2O[C@@H]3C[C@@H]4C[C@@H](C4(C)C)[C@]3(C)O2)cc1 [D.24.4, 4-butylbenzamide, N-[(1S)-1-[[[(1R)-1-[(3aS,aS,6S,7aR)-hexahydro-3a,5,5-trimethyl-4,6-methano-1,3,2-benzodioxaborol-2-yl-]-3-methylbulyl]amino]carbonyl]-2-(methanesulfonamido)ethyl]-]
150 to 155 | < 10 | 200 to 2000 | CC(C)C[C@H](NC(=O)[C@H](CNS(=O)(=O)c1ccc(F)cc1)NC(=O)c1ccc(Oc2ccccc2)cc1)B(O)O [E.5.30, Boronic acid, [(1R)-1-[[(2S)-3-[4-fluoro-benzenesulfonamide]-2-[(4-phenoxybenzoyl)amino]-1-oxopropyl]amino]-3-methylbutyl]]
120 to 123 | < 100 | 200 to 2000 | CCCCc1ccc(C(=O)N[C@@H](CNS(C)(=O)=O)C(=O)N[C@@H](CC(C)C)B(O)O)cc1 [E.5.3, Boronic acid, [(1R)-1-[[(2S)-3-(methanesulfamido)-2-[(4-butyl)-benzoylamino]-1-oxopropyl]amino]-3-methylbutyl]]
110 | < 10 | < 200 | CCCCCCCCCC(=O)N[C@@H](CNC(=O)c1cccs1)C(=O)N[C@@H](CC(C)C)B1O[C@@H]2C[C@@H]3C[C@@H](C3(C)C)[C@]2(C)O1 [D.24.9, Decanamide, N-[(1S)-1-[[[(1R)-1-[(3aS,4S,6S,7aR)-hexahydro-3a,5,5-trimethyl-4,6-methano-1,3,2-benzodioxaborol-2-yl]-3-methylbutyl]amino]carbonyl]-2-[(thien-2-ylcarbonyl)amino]ethyl]-]
150 to 152 | < 10 | < 200 | CCCCc1ccc(C(=O)N[C@@H](CNC(=O)c2ccc(C)cc2)C(=O)N[C@@H](CC(C)C)B2O[C@@H]3C[C@@H]4C[C@@H](C4(C)C)[C@]3(C)O2)cc1 [D.24.6, 4-butylbenzamide, N-[(1S)-1-[[[(1R)-1-[(3aS,aS,6S,7aR)-hexahydro-3a,5,5-trimethyl-4,6-methano-1,3,2-benzodioxaborol-2-yl-]-3-methylbutyl]amino]carbonyl]-2-[(4-methylphenyl)carbonylamino]ethyl]-]
97 to 116 | < 10 | < 200 | CCCCCCCCCCCCC(=O)N[C@H](C(=O)N[C@@H](CC(C)C)B(O)O)[C@@H](C)O [E.3.3, Boronic acid, [(1R)-1-[[(2S,3R)-3-hydroxy-2-[(tridecanoyl)amino]-1-oxobutyl]amino]-3-methylbutyl]]
130 to 132 | < 10 | < 200 | CCCCc1ccc(C(=O)N[C@@H](CNS(=O)(=O)c2ccc(F)cc2)C(=O)N[C@@H](CC(C)C)B(O)O)cc1 [E.5.11, Boronic acid, [(1R)-1-[[(2S)-3-[4-fluoro-benzenesulfonamide]-2-[(4-butylbenzoyl)amino]-1-oxopropyl]amino]-3-methylbutyl]]
145 to 147 | < 10 | < 200 | CCCCc1ccc(C(=O)N[C@@H](CNC(=O)c2ccc(S(N)(=O)=O)cc2)C(=O)N[C@@H](CC(C)C)B2O[C@@H]3C[C@@H]4C[C@@H](C4(C)C)[C@]3(C)O2)cc1 [D.24.16]
120 to 123 | < 10 | 200 to 2000 | CCCCc1ccc(C(=O)N[C@@H](CNS(=O)(=O)c2cn(C)cn2)C(=O)N[C@@H](CC(C)C)B(O)O)cc1 [E.5.26, Boronic acid, [(1R)-1-[[(2S)-3-[1-methyl-1H-imidazole-4-sulfamoyl]-2-[(4-butylbenzoyl)amino]-1-oxopropyl]amino]-3-methylbutyl]]
145 to 148 | < 10 | < 200 | Cc1cc(C(=O)NC[C@H](NC(=O)c2ccc(Oc3ccccc3)cc2)C(=O)N[C@@H](CC(C)C)B(O)O)n(C)n1 [E.5.31]
155 to 158 | < 10 | < 200 | CC(C)C[C@H](NC(=O)[C@H](CNC(=O)Nc1ccccc1)NC(=O)c1ccc(Oc2ccccc2)cc1)B(O)O [E.5.32, Boronic acid, [(1R)-1-[[(2S)-3-(4-phenylureido]-2-[(4-phenoxybenzoyl)amino]-1-oxopropyl]amino]-3-methylbutyl]]
156 to 159 | < 10 | 200 to 2000 | CCCCc1ccc(C(=O)N[C@@H](CNC(=O)c2ccc(S(N)(=O)=O)cc2)C(=O)N[C@@H](CC(C)C)B(O)O)cc1 [E.5.17, Boronic acid, [(1R)-1-[[(2S)-3-[4-sulfamylbenzoylamino]-2-[(4-butylbenzoyl)amino]-1-oxopropyl]amino]-3-methylbutyl]]
178 to 180 | < 10 | < 200 | CCCCc1ccc(C(=O)N[C@@H](CNC(=O)c2ccc(N3CCOCC3)nc2)C(=O)N[C@@H](CC(C)C)B(O)O)cc1 [E.5.28, Boronic acid, [(1R)-1-[[(2S)-3-(6-morpholinonicotinamide]-2-[(4-butylbenzoyl)amino]-1-oxopropyl]amino]-3-methylbutyl]]
155 to 158 | < 10 | < 200 | CCCCc1ccc(C(=O)N[C@@H](CNC(=O)c2csc(-c3ccncc3)n2)C(=O)N[C@@H](CC(C)C)B(O)O)cc1 [E.5.37, Boronic acid, [(1R)-1-[[(2S)-3-(4-(2-(4-pyridyl)-1,3-thiazole-4-carbonylamino)]-2-[(4-butylbenzoyl)amino]-1-oxopropyl]amino]-3-methylbutyl]]
128 to 130 | – | – | CCCCc1ccc(C(=O)N[C@@H](CNC(=O)c2ccno2)C(=O)N[C@@H](CC(C)C)B2O[C@@H]3C[C@@H]4C[C@@H](C4(C)C)[C@]3(C)O2)cc1 [D.24.21, 4-butylbenzamide, N-[(1S)-1-[[[(1R)-1-[(3aS,aS,6S,7aR)-hexahydro-3a,5,5-trimethyl-4,6-methano-1,3,2-benzodioxaborol-2-yl-]-3-methylbutyl]amino]carbonyl]-2-[(1-isoxazol-5-yl)-carbonylamino]ethyl]-]
100 to 103 | – | – | Cc1cc(C(=O)NC[C@H](NC(=O)c2ccc(Oc3ccccc3)cc2)C(=O)N[C@@H](CC(C)C)B2O[C@@H]3C[C@@H]4C[C@@H](C4(C)C)[C@]3(C)O2)n(C)n1 [D.24.30, 4-phenoxybenzamide, N-[(1S)-1-[[[(1R)-1-[(3aS,aS,6S,7aR)-hexahydro-3a,5,5-trimethyl-4,6-methano-1,3,2-benzodioxaborol-2-yl-]-3-methylbutyl]amino]carbonyl]-2-[(2,5-dimethyl-2H-pyrazole)carbonylamino]ethyl]-]
